Assay [1] deals with Swiss Webster mice. Type of assay: in vivo. To be noted: Example 4; hapten conjugated to TT, 75 μg with 50 μg CpG + 750 μg Alhydrogel/alum, s.c. days 0, 14, 28.
The test system of assay [2] is Swiss Webster mice. As to the kind of experiment: METH-induced locomotor activity assay in vaccinated mice. The class given is in vivo. The note with it: Example 4; vaccinated mice challenged with METH. As to the method:
On day 42, vaccinated mice were assessed in a locomotion assay by acclimating them for 1 h in a plastic cage (10.5 in.×19 in.×8 in.) with clear ventilated acrylic top. Mice were then quickly removed and injected with saline or 0.5, 1, 2, or 4 mg/kg METH before being returned to their cages; cages were wiped down with dry paper towels to remove excess debris while mice were being injected. The mice were then returned to the cage to be recorded and tracked by overhead camera using ANY-Maze video tracking software (Stoelting Co., Wood Dale, Ill.). Sessions were run during the middle of the dark cycle in a 4.6×4.6 m^2 room with a single 30 W upward-directed light source, and then repeated on mice after a two-day washout period until all mice received all MA doses. Distance traveled (m) and time spent immobile (s; 80% pixel consistency for at least 5 s threshold) were measured and analyzed via Prism 6 software, using a two-way repeated-measures ANOVA with Bonferroni posthoc corrected comparisons. Significance was set at a=0.05 and data is represented as mean±SEM.
The mice were monitored for swelling, redness or formation of granulomas at the injection site. The mice were bled on days 21 and 42. The anti-METH IgG antibody titers were determined by ELISA. On day 45, mice were given a 2 mg/kg dose of METH and their locomotor activity was monitored.

Assay [3] deals with Swiss Webster mice. The note with it: mouse, in vivo, sc.

For the molecule `CN[C@@H](CCC(=O)NCCCCCCC(=O)O)Cc1ccccc1` [I-66], in the assay on Swiss Webster mice [1], the “anti-METH antibody titers (ELISA)” value is “at least comparable to, and possibly greater than, the MH-6 hapten”. The METH-induced locomotor activity result in the assay with Swiss Webster mice [2] is “worked as well as, and possibly better than, MH-6”. Consider TT: tetanus toxoid scaffold protein, for which the immune response entry in the assay on Swiss Webster mice [3] is reported as “potent immune responses”.

Values taken from patent US11739054B2 (priority 2017, dated 2023).
